Entries after “also recorded” stand apart in the source; their conditions may differ.
Test system: PGP 9.5
Assay: PGP 9.5 expression in CYP-CIPN rat hindpaw epidermis, Western immunoblotting
Type: in vivo
Details: 8-AG 5 mg/kg/day in drinking water
Procedure: Animals. This study employed female Harlan Sprague Dawley (HSD) rats (3-4 mo; Envigo, Indianapolis, IN) and were divided into the following groups: 1) Control, 2) Cyclophosphamide (CYP, 75 mg/kg i.p. in saline vehicle; administered on days 0, 3 and 6); 3) 8-aminoguanine (8-AG; 5 mg/kg/day in drinking water; beginning 2 weeks prior to CYP and continuing until sacrifice (day 8)). The dose of 8-AG is based on our preliminary and published experiments. […] The investigation conforms to the Guide for the Care and Use of Laboratory Animals published by the US National Institutes of Health (NIH Publication No. 85-23, revised 1996). […]
Western immunoblotting: Following the testing paradigms, rats were deeply anesthetized and tissues (e.g., epidermis, peripheral sciatic nerves, spinal cord segments (L3-L5) and dorsal root ganglia (L3-L5) were removed, and a portion of each preparation was homogenized using Lysing Matrix D in a FASTPREP® 24 instrument (MP Biomedicals, Solon, OH) in HBSS [5 mM KCl, 0.3 mM KH2PO4, 138 mM NaCl, 4 mM NaHO3, 0.3 mM Na2HCO3, 0.3 mM Na2HPO4, 5.6 mM glucose and 10 mM Hepes, pH 7.4 containing complete protease inhibitor cocktail (1 tablet/10 ml, Roche, Indianapolis, IN)] and phosphatase inhibitor cocktail (Sigma, 1:100). […] The protein concentrations of the supernatants were determined using the Pierce BCA protein assay (Thermo Scientific, Rockford, IL). […]

Nc1nc2[nH]c(N)nc2c(=O)[nH]1 [8-AG, 8-Aminoguanine]
effect on CYP-induced decrease in PGP 9.5 expression: restored to control values; also recorded: normalized

Reference: US20250127787A1, “METHODS FOR TREATING PERIPHERAL NEUROPATHY” (University of Pittsburgh - Of the Commonwealth System of …, priority 2021, published 2025)
